{"source": "patent US20070128217A1", "about": "(priority 2003, published 2007)", "key": {"[1]": {"system": "antibodies in sera from SARS patients (sera 1a, 1b, 2, 6, 37, 62, London, SARS-yellow, SARS-green)", "type": "binding, human", "set-up": "Binding of serum 6 to linear peptides of protein X1 of SARS-CoV Urbani / Binding of serum 37 to linear peptides of protein X1 of SARS-CoV Urbani / Binding of serum 6 to looped/cyclic peptide (PEPSCAN-ELISA) / Binding of serum 37 to looped/cyclic peptide (PEPSCAN-ELISA) / Binding of serum 37 to looped/cyclic peptides of protein X1 of SARS-CoV Urbani / Binding of serum 6 to linear peptides of protein X2 / Binding of serum 37 to linear peptides of protein X2 / Binding of serum 37 to looped/cyclic peptides of protein X2 of SARS-CoV Urbani / Binding of serum 6 to linear peptides of protein M of SARS-CoV Urbani / Binding of serum 37 to linear peptides of protein M of SARS-CoV Urbani / Binding of serum 6 to looped/cyclic peptides of protein M of SARS-CoV Urbani / Binding of serum 37 to looped/cyclic peptides of protein M of SARS-CoV Urbani / Binding of serum 6 to linear peptides of protein X3 of SARS-CoV Urbani / Binding of serum 37 to linear peptides of protein X3 of SARS-CoV Urbani / Binding of serum 37 to looped/cyclic peptides of protein X3 of SARS-CoV Urbani / Binding of serum 6 to linear peptides of protein X4 of SARS-CoV Urbani / Binding of serum 37 to linear peptides of protein X4 of SARS-CoV Urbani / Binding of serum 37 to looped/cyclic peptides of protein X4 of SARS-CoV Urbani / Binding of serum 6 to linear peptides of protein X5 of SARS-CoV Urbani / Binding of serum 37 to linear peptides of protein X5 of SARS-CoV Urbani / Binding of serum 37 to looped/cyclic peptides of protein X5 of SARS-CoV Urbani / Binding of serum 6 to linear peptides of protein N of SARS-CoV Urbani / Binding of serum 37 to linear peptides of protein N of SARS-CoV Urbani / Binding of serum 6 to linear peptide (PEPSCAN-ELISA) / Binding of serum 1a to looped/cyclic peptides of protein N of SARS-CoV Urbani / Binding of serum 1b to looped/cyclic peptides of protein N of SARS-CoV Urbani / Binding of serum 2 to looped/cyclic peptides of protein N of SARS-CoV Urbani / Binding of serum 6 to looped/cyclic peptides of protein N of SARS-CoV Urbani / Binding of serum 37 to looped/cyclic peptides of protein N of SARS-CoV Urbani / Binding of serum 62 to looped/cyclic peptides of protein N of SARS-CoV Urbani / Binding of serum London to looped/cyclic peptides of protein N of SARS-CoV Urbani / Binding of serum SARS-green to looped/cyclic peptides of protein N of SARS-CoV Urbani: unit not given here"}, "[2]": {"system": "control sera (pooled serum of ten healthy LUMC hospital workers; commercial negative donor pooled serum from the Dutch bloodbank)", "type": "binding, human", "set-up": "Binding of Control serum LUMC to linear peptides / Binding of Control serum Blood-bank to linear peptides / Binding of Control serum LUMC to looped peptides / Binding of Control Serum Blood-Bank to Looped peptides / Binding of Control serum LUMC to linear peptides of the protein M of SARS-CoV Urbani / Binding of Control serum Blood-bank to linear peptides of the protein M of SARS-CoV Urbani / Binding of Control serum LUMC to looped peptides of the protein M of SARS-CoV Urbani / Binding of Control Serum Blood-Bank to Looped peptides of the protein M of SARS-CoV Urbani: unit not given here"}, "[3]": {"system": "rabbit serum obtained by immunizing a rabbit with the SARS-CoV strain Frankfurt 1", "type": "binding", "set-up": "Binding of a rabbit serum to linear peptides / Binding of a rabbit serum to looped peptides / Rabbit serum linear peptides / Rabbit serum looped peptides / Binding of a rabbit serum to linear peptides of protein N of SARS-CoV Urbani (Rabbit serum linear peptides) / Binding of a rabbit serum to looped/cyclic peptides of protein N of SARS-CoV Urbani (Rabbit serum looped peptides): unit not given here"}}}
{"sequence": "TSLLKTHRMCKYTQS", "values": [{"measurement": "Binding of serum 1a to linear peptides of protein X2", "setting": "[1]", "value": 0.7}, {"measurement": "Binding of serum 1a to looped/cyclic peptides of protein X2 of SARS-CoV Urbani", "setting": "[1]", "value": 0.4}, {"measurement": "Binding of serum 1b to linear peptides of protein X2", "setting": "[1]", "value": 0.7}, {"measurement": "Binding of serum 1b to looped/cyclic peptides of protein X2 of SARS-CoV Urbani", "setting": "[1]", "value": 0.3}, {"measurement": "Binding of serum 2 to linear peptides of protein X2", "setting": "[1]", "value": 0.6}, {"measurement": "Binding of serum 2 to looped/cyclic peptides of protein X2 of SARS-CoV Urbani", "setting": "[1]", "value": 0.2}, {"measurement": "Binding of serum 6 to linear peptides of protein X2", "setting": "[1]", "value": 0.5}, {"measurement": "Binding of serum 6 to looped/cyclic peptides of protein X2 of SARS-CoV Urbani", "setting": "[1]", "value": 0.2}, {"measurement": "Binding of serum 37 to linear peptides of protein X2", "setting": "[1]", "value": 0.7}, {"measurement": "Binding of serum 37 to looped/cyclic peptides of protein X2 of SARS-CoV Urbani", "setting": "[1]", "value": 0.2}, {"measurement": "Binding of serum 62 to linear peptides of protein X2", "setting": "[1]", "value": 0.7}, {"measurement": "Binding of serum 62 to looped/cyclic peptides of protein X2 of SARS-CoV Urbani", "setting": "[1]", "value": 0.4}, {"measurement": "Binding of serum London to linear peptides of protein X2", "setting": "[1]", "value": 0.5}, {"measurement": "Binding of serum London to looped/cyclic peptides of protein X2 of SARS-CoV Urbani", "setting": "[1]", "value": 0.2}, {"measurement": "Binding of serum SARS-green to linear peptides of protein X2", "setting": "[1]", "value": 0.6}, {"measurement": "Binding of serum SARS-green to looped/cyclic peptides of protein X2 of SARS-CoV Urbani", "setting": "[1]", "value": 0.2}, {"measurement": "Binding of serum SARS-yellow to linear peptides of protein X2", "setting": "[1]", "value": 0.8}, {"measurement": "Binding of serum SARS-yellow to looped/cyclic peptides of protein X2 of SARS-CoV Urbani", "setting": "[1]", "value": 0.3}, {"measurement": "Binding of Control Serum Blood-Bank to Looped peptides", "setting": "[2]", "value": 0.4}, {"measurement": "Binding of Control serum Blood-bank to linear peptides", "setting": "[2]", "value": 1.0}, {"measurement": "Binding of Control serum LUMC to linear peptides", "setting": "[2]", "value": 0.9}, {"measurement": "Binding of Control serum LUMC to looped peptides", "setting": "[2]", "value": 0.4}, {"measurement": "Binding of a rabbit serum to linear peptides", "setting": "[3]", "value": 0.4}, {"measurement": "Binding of a rabbit serum to looped peptides", "setting": "[3]", "value": 0.4}]}
{"sequence": "LCKHKKVSTNLCTHS", "values": [{"measurement": "Recognition of the peptide by sera of SARS-CoV infected individuals, and form (linear, looped/cyclic) in which it is recognized", "setting": "[1]", "value": "recognized in linear form"}, {"measurement": "Binding of Control Serum Blood-Bank to Looped peptides", "setting": "[2]", "value": 0.3}, {"measurement": "Binding of Control serum Blood-bank to linear peptides", "setting": "[2]", "value": 0.8}, {"measurement": "Binding of Control serum LUMC to linear peptides", "setting": "[2]", "value": 0.7}, {"measurement": "Binding of Control serum LUMC to looped peptides", "setting": "[2]", "value": 0.4}, {"measurement": "Binding of a rabbit serum to linear peptides", "setting": "[3]", "value": 0.3}, {"measurement": "Binding of a rabbit serum to looped peptides", "setting": "[3]", "value": 0.3}]}
{"sequence": "FLAWIMLLQFAYSNR", "values": [{"measurement": "Binding of serum 1a to linear peptides of protein M of SARS-CoV Urbani", "setting": "[1]", "value": 0.7}, {"measurement": "Binding of serum 1a to looped/cyclic peptides of protein M of SARS-CoV Urbani", "setting": "[1]", "value": 0.8}, {"measurement": "Binding of serum 1b to linear peptides of protein M of SARS-CoV Urbani", "setting": "[1]", "value": 0.6}, {"measurement": "Binding of serum 1b to looped/cyclic peptides of protein M of SARS-CoV Urbani", "setting": "[1]", "value": 0.8}, {"measurement": "Binding of serum 2 to linear peptides of protein M of SARS-CoV Urbani", "setting": "[1]", "value": 0.5}, {"measurement": "Binding of serum 2 to looped/cyclic peptides of protein M of SARS-CoV Urbani", "setting": "[1]", "value": 0.6}, {"measurement": "Binding of serum 6 to linear peptides of protein M of SARS-CoV Urbani", "setting": "[1]", "value": 0.4}, {"measurement": "Binding of serum 6 to looped/cyclic peptides of protein M of SARS-CoV Urbani", "setting": "[1]", "value": 0.9}, {"measurement": "Binding of serum 37 to linear peptides of protein M of SARS-CoV Urbani", "setting": "[1]", "value": 0.4}, {"measurement": "Binding of serum 37 to looped/cyclic peptides of protein M of SARS-CoV Urbani", "setting": "[1]", "value": 0.7}, {"measurement": "Binding of serum 62 to linear peptides of protein M of SARS-CoV Urbani", "setting": "[1]", "value": 0.4}, {"measurement": "Binding of serum 62 to looped/cyclic peptides of protein M of SARS-CoV Urbani", "setting": "[1]", "value": 0.6}, {"measurement": "Binding of serum London to linear peptides of protein M of SARS-CoV Urbani", "setting": "[1]", "value": 0.4}, {"measurement": "Binding of serum London to looped/cyclic peptides of protein M of SARS-CoV Urbani", "setting": "[1]", "value": 0.7}, {"measurement": "Binding of serum SARS-green to linear peptides of protein M of SARS-CoV Urbani", "setting": "[1]", "value": 0.5}, {"measurement": "Binding of serum SARS-green to looped/cyclic peptides of protein M of SARS-CoV Urbani", "setting": "[1]", "value": 0.5}, {"measurement": "Binding of serum SARS-yellow to linear peptides of protein M of SARS-CoV Urbani", "setting": "[1]", "value": 0.2}, {"measurement": "Binding of serum SARS-yellow to looped/cyclic peptides of protein M of SARS-CoV Urbani", "setting": "[1]", "value": 0.7}, {"measurement": "Binding of Control Serum Blood-Bank to Looped peptides of the protein M of SARS-CoV Urbani", "setting": "[2]", "value": 0.8}, {"measurement": "Binding of Control serum Blood-bank to linear peptides of the protein M of SARS-CoV Urbani", "setting": "[2]", "value": 0.5}, {"measurement": "Binding of Control serum LUMC to linear peptides of the protein M of SARS-CoV Urbani", "setting": "[2]", "value": 0.5}, {"measurement": "Binding of Control serum LUMC to looped peptides of the protein M of SARS-CoV Urbani", "setting": "[2]", "value": 0.7}, {"measurement": "Rabbit serum linear peptides", "setting": "[3]", "value": 0.3}, {"measurement": "Rabbit serum looped peptides", "setting": "[3]", "value": 0.5}]}
